This passage reports MIC results from patent US9085806B2, “Methods for treating infection involving identification of a carbapanemase gene” (priority 2007, dated 2015).

Common to all, as to experiment: Antimicrobial susceptibility testing, broth microdilution (CLSI)
Format in all cases: cell-based
On the technique in general: Dilution methods test growth across graded concentrations, often in twofold steps.

Test [1] deals with Klebsiella oxytoca Strain ID 303990. The following applies: Strain ID 303990 KLEOXY, Mueller-Hinton broth, read-out: minimum inhibition concentration (MIC). An excerpt:
(§1) Carbapenem-resistant Klebsiella and E. coli were identified by broth microdilution as described by CLSI from the BD ID/AST microbial bank (1). Wild-type (Ampicillin sensitive) E. coli ATCC 25922 (Strain ID 300960) was used through out the experiments as a negative control. Three strains previously determined to contain KPC-1, KPC-2, and KPC-3 (Strain ID 301916=KPC-1, 301917=KPC-2, 301918=KPC-3) were used as positive controls (4). […] ESBL positive strains were identified using the CLSI recommended broth microdilution assay (2). Prior to any processing or extraction, all strains were streaked out on Trypticase Soy Agar (TSA) plates containing 5% Sheep red blood cells (BD Diagnostic Systems, Sparks, Md.) and grown at 35° C. overnight.
(§2) Antimicrobial susceptibility testing was performed using Mueller-Hinton broth (BD Diagnostic Systems, Sparks, Md.) as described by CLSI (1). Antimicrobial powders were acquired from the following companies; Ampicillin (Amp) and Cefotaxime (CTX) (Sigma Chemical Co., St. Louis, Mo.), Ceftazidime (CAZ) (Eli Lilly, Indianapolis, Ind.), Clavulanic acid (Smith-Kline, King of Prussia, Pa.), Imipenem (IPM) (Merck & Co., Rahway, N.J.).
(§3) The BD ID/AST Microbial Bank was screened for carbapenem-resistant Klebsiella and E. coli with broth microdilution as described by CLSI (2). Klebsiella spp. and E. coli were chosen because they are the primary reservoir species for the plasmid-borne KPC gene.
(§4) ESBL positive strains were identified using the CLSI recommended broth microdilution assay (2). Briefly, this broth microdilution assay has a two-fold dilution scheme between a defined range of the antimicrobial agent. For example, where the defined range of the antimicrobial agent is […], the two-fold dilution between wells is represented by 0.25, 0.5, 1, 2, 4, 8, and 16 μg/ml. To identify ESBL positive strains, growth is evaluated in wells containing the antimicrobial agent of interest at these various two-fold dilutions across the defined range either alone or in combination with Clavulanic acid in order to determine the MIC for the antimicrobial agent alone or in combination with Clavulanic acid. […] A wild-type E. coli Strain ID 300960 was also screened and used as a negative control for all of the real-time assays.

Test [2] deals with Klebsiella pneumoniae Strain ID 301917 (KPC-2). The following applies: Strain ID 301917 KLEPNEP, KPC-2 positive control, ESBL positive, Mueller-Hinton broth, read-out: minimum inhibition concentration (MIC).
Excerpt: as §1, §2, §3, §4

Test [3] has as its system E. coli ATCC 25922 (Strain ID 300960). The following applies: Escherichia coli, ATCC25922; Strain ID 300960 ESCCOL, wild-type negative control; Mueller-Hinton broth; read-out: minimum inhibition concentration (MIC).
Excerpt: as §1, §2, §3, §4

Test [4] concerns Klebsiella pneumoniae Strain ID 301891. The following applies: Strain ID 301891 KLEPNEP, Mueller-Hinton broth, read-out: minimum inhibition concentration (MIC).
Excerpt: as §1, §2, §3, §4

A further test relates to E. coli Strain ID 301894. The following applies: Escherichia coli; Strain ID 301894 ESCCOL, ESBL positive; Mueller-Hinton broth; read-out: minimum inhibition concentration (MIC).
Excerpt: as §1, §2, §3, §4

In test [5] the test system is Klebsiella pneumoniae Strain ID 301920. The following applies: Strain ID 301920 KLEPNEP, ESBL positive, Mueller-Hinton broth, read-out: minimum inhibition concentration (MIC).
Excerpt: as §1, §2, §3, §4

Test [6] has as its system Klebsiella oxytoca Strain ID 300967. The following applies: Strain ID 300967 KLEOXY, Mueller-Hinton broth, read-out: minimum inhibition concentration (MIC).
Excerpt: as §1, §2, §3, §4

The next test deals with E. coli Strain ID 301888. The following applies: Escherichia coli; Strain ID 301888 ESCCOL, ESBL positive; Mueller-Hinton broth; read-out: minimum inhibition concentration (MIC).
Excerpt: as §1, §2, §3, §4

The subject of a further test is E. coli Strain ID 303364. The settings on record: Escherichia coli; Strain ID 303364 ESCCOL; Mueller-Hinton broth; read-out: minimum inhibition concentration (MIC).
Excerpt: as §1, §2, §3, §4

The subject of another test is E. coli Strain ID 301921. The settings on record: Escherichia coli; Strain ID 301921 ESCCOL, ESBL positive; Mueller-Hinton broth; read-out: minimum inhibition concentration (MIC).
Excerpt: as §1, §2, §3, §4

A further test relates to E. coli Strain ID 301892. The settings on record: Escherichia coli; Strain ID 301892 ESCCOL, ESBL positive; Mueller-Hinton broth; read-out: minimum inhibition concentration (MIC).
Excerpt: as §1, §2, §3, §4

The test system of a further test is E. coli Strain ID 303365. The following applies: Escherichia coli; Strain ID 303365 ESCCOL, ESBL positive; Mueller-Hinton broth; read-out: minimum inhibition concentration (MIC).
Excerpt: as §1, §2, §3, §4

Test [7] deals with Klebsiella pneumoniae Strain ID 301008. The following applies: Strain ID 301008 KLEPNEP, Mueller-Hinton broth, read-out: minimum inhibition concentration (MIC).
Excerpt: as §1, §2, §3, §4

The test system of test [8] is Klebsiella pneumoniae Strain ID 301899. The settings on record: Strain ID 301899 KLEPNEP, Mueller-Hinton broth, read-out: minimum inhibition concentration (MIC).
Excerpt: as §1, §2, §3, §4

Test [9] deals with E. coli Strain ID 301918 (KPC-3). The following applies: Escherichia coli; Strain ID 301918 ESCCOL, KPC-3 positive control; Mueller-Hinton broth; read-out: minimum inhibition concentration (MIC).
Excerpt: as §1, §2, §3, §4

The subject of test [10] is Klebsiella pneumoniae Strain ID 300996. The following applies: Strain ID 300996 KLEPNEP, ESBL positive, Mueller-Hinton broth, read-out: minimum inhibition concentration (MIC).
Excerpt: as §1, §2, §3, §4

In a further test the test system is E. coli Strain ID 303369. The settings on record: Escherichia coli; Strain ID 303369 ESCCOL; Mueller-Hinton broth; read-out: minimum inhibition concentration (MIC).
Excerpt: as §1, §2, §3, §4

Test [11] deals with Klebsiella pneumoniae Strain ID 301919. The following applies: Strain ID 301919 KLEPNEP, ESBL positive, Mueller-Hinton broth, read-out: minimum inhibition concentration (MIC).
Excerpt: as §1, §2, §3, §4

In test [12] the test system is Klebsiella pneumoniae Strain ID 301898. The following applies: Strain ID 301898 KLEPNEP, Mueller-Hinton broth, read-out: minimum inhibition concentration (MIC).
Excerpt: as §1, §2, §3, §4

A further test relates to E. coli Strain ID 301922. The settings on record: Escherichia coli; Strain ID 301922 ESCCOL, ESBL positive; Mueller-Hinton broth; read-out: minimum inhibition concentration (MIC).
Excerpt: as §1, §2, §3, §4

For test [13], the system named is Klebsiella pneumoniae Strain ID 301916 (KPC-1). The settings on record: Strain ID 301916 KLEPNEP, KPC-1 positive control, Mueller-Hinton broth, read-out: minimum inhibition concentration (MIC).
Excerpt: as §1, §2, §3, §4

Another test relates to E. coli Strain ID 301896. The settings on record: Escherichia coli; Strain ID 301896 ESCCOL, ESBL positive; Mueller-Hinton broth; read-out: minimum inhibition concentration (MIC).
Excerpt: as §1, §2, §3, §4

Test [14] deals with Klebsiella pneumoniae Strain ID 303375. The following applies: Strain ID 303375 KLEPNEP, Mueller-Hinton broth, read-out: minimum inhibition concentration (MIC).
Excerpt: as §1, §2, §3, §4

The next test concerns E. coli Strain ID 301905. The settings on record: Escherichia coli; Strain ID 301905 ESCCOL; Mueller-Hinton broth; read-out: minimum inhibition concentration (MIC).
Excerpt: as §1, §2, §3, §4

Regarding `C[C@@H](O)[C@H]1C(=O)N2C(C(=O)O)=C(SCCN=CN)C[C@H]12` [IPM, Imipenem], the MIC in [1] is 16 mg/L; in test [2], 8 mg/L; in test [3], ≤ 0.25 mg/L; in test [4], ≤ 2 mg/L; in the test on E. coli Strain ID 301894 it was ≤ 2 mg/L; in [5], ≤ 2 mg/L. In addition, the MIC is > 16 mg/L in test [6]; 4 mg/L with E. coli Strain ID 301888; ≤ 2 mg/L in the test on E. coli Strain ID 303364; ≤ 2 mg/L in the test on E. coli Strain ID 301921; 4 mg/L in the test on E. coli Strain ID 301892; ≤ 2 mg/L with E. coli Strain ID 303365. Further, the MIC in test [7] is ≤ 2 mg/L; in [8], 4 mg/L; in test [9], 16 mg/L; in test [10], 8 mg/L; in the test with E. coli Strain ID 303369 it was ≤ 2 mg/L; in test [11], ≤ 2 mg/L. Also, the MIC in [12] was 4 mg/L; in the test with E. coli Strain ID 301922, ≤ 0.25 mg/L; in [13], 8 mg/L; in the test on E. coli Strain ID 301896, ≤ 2 mg/L; in test [14], ≤ 2 mg/L; in the test on E. coli Strain ID 301905, 8 mg/L.
For the compound `CC1(C)S[C@@H]2[C@H](NC(=O)[C@H](N)c3ccccc3)C(=O)N2[C@H]1C(=O)O` [Amp, Ampicillin], the MIC in test [1] is > 32 mg/L; in test [2], > 32 mg/L; in [3], ≤ 0.25 mg/L; in [4], > 32 mg/L; in the test on E. coli Strain ID 301894 it was > 32 mg/L; in test [5], > 32 mg/L. Also, the MIC (in test [6]; with E. coli Strain ID 301888; in the test on E. coli Strain ID 303364; in the test on E. coli Strain ID 301921; with E. coli Strain ID 301892; with E. coli Strain ID 303365) was > 32 mg/L throughout. Moreover, the MIC in test [7] was 16 mg/L; in [8], > 32 mg/L; in test [9], > 32 mg/L; in test [10], > 32 mg/L; with E. coli Strain ID 303369, > 32 mg/L; in test [11], > 32 mg/L. Besides, the MIC (in test [12]; in the test with E. coli Strain ID 301922; in test [13]; in the test on E. coli Strain ID 301896; in test [14]; with E. coli Strain ID 301905) was > 32 mg/L in each case.
Take `CO/N=C(\C(=O)N[C@@H]1C(=O)N2C(C(=O)O)=C(COC(C)=O)CS[C@H]12)c1csc(N)n1` [CTX, Cefotaxime]: the MIC was > 64 mg/L in test [1]; 32 mg/L in test [2]; ≤ 0.25 mg/L in test [3]; 4 mg/L in test [4]; 16 mg/L in the test with E. coli Strain ID 301894; > 64 mg/L in [5]. In addition, the MIC in test [6] was > 64 mg/L; in the test on E. coli Strain ID 301888 it was 32 mg/L; with E. coli Strain ID 303364, 32 mg/L; in the test on E. coli Strain ID 301921, > 64 mg/L; in the test with E. coli Strain ID 301892 it was 32 mg/L; in the test on E. coli Strain ID 303365, > 64 mg/L. The MIC in test [7] was ≤ 0.25 mg/L; in test [8], > 64 mg/L; in test [9], > 64 mg/L; in [10] it was 2 mg/L; in the test with E. coli Strain ID 303369 it was 32 mg/L; in test [11] it was 16 mg/L. Moreover, the MIC in [12] is > 64 mg/L; in the test on E. coli Strain ID 301922 it was > 64 mg/L; in test [13] it was > 64 mg/L; in the test on E. coli Strain ID 301896 it was 64 mg/L; in test [14], 32 mg/L; in the test on E. coli Strain ID 301905, > 64 mg/L.
As for `CC(C)(O/N=C(\C(=O)N[C@@H]1C(=O)N2C(C(=O)[O-])=C(C[n+]3ccccc3)CS[C@H]12)c1csc(N)n1)C(=O)O` [CAZ, Ceftazidime], the MIC is 128 mg/L in test [1]; 4 mg/L in test [2]; ≤ 0.5 mg/L in [3]; 16 mg/L in test [4]; > 128 mg/L in the test with E. coli Strain ID 301894; 64 mg/L in test [5]. Besides, the MIC in [6] is 128 mg/L; in the test on E. coli Strain ID 301888, 64 mg/L; in the test on E. coli Strain ID 303364, 128 mg/L; in the test on E. coli Strain ID 301921 it was 32 mg/L; in the test on E. coli Strain ID 301892, 64 mg/L; in the test with E. coli Strain ID 303365, > 128 mg/L. Also, the MIC in test [7] was ≤ 0.25 mg/L; in test [8] it was > 128 mg/L; in test [9], > 128 mg/L; in [10], 4 mg/L; in the test on E. coli Strain ID 303369 it was 64 mg/L; in test [11], 32 mg/L. The MIC in [12] is > 128 mg/L; in the test with E. coli Strain ID 301922, 16 mg/L; in test [13], > 128 mg/L; with E. coli Strain ID 301896, > 128 mg/L; in test [14], 64 mg/L; in the test with E. coli Strain ID 301905, 32 mg/L.
